This is an account of results in patent US20230365493A1, “COMPOUNDS AND METHODS” (DEMAGTECH PTY LTD, priority 2020, published 2023).

Structures can show the parent of a compound that is named as a salt.

A word on the minimal effective concentration: it is the smallest amount tested that counted as effective. A high value points to a need for much substance.

For one assay, the system named is A. thaliana. In words: Herbicidal activity assay, post-emergence, pots. To be noted: A. thaliana Col-0; post-emergence treatments at three and six days after germination; grown 16 days after treatment. Type of assay: in vivo, Arabidopsis thaliana Col-0. The procedure: (§1) A range of compounds of the invention were assessed for herbicidal activity against A. thaliana. A. thaliana Col-0 seeds (˜30) were sown in 63×63×59 mm pots consisting of Irish peat that was pre-wet prior to sowing. Seeds were cold-treated for 3 days in the dark at 4° C. to synchronise germination and then grown in a chamber at 22° C., with 60% relative humidity and in a 16 h light/8 h dark photoperiod. Compounds of the invention were initially dissolved in dimethyl sulfoxide (DMSO) at 20 mg/mL and further diluted in water prior to treatments. The surfactant Brushwet (SST Australia) was added to a final concentration of 0.02%. The carrier DMSO was used as a negative control. Seeds or seedlings were treated with solutions of compound that contained 2% of DMSO, using a pipette. Post-emergence treatments were done at three and six days after germination. Seedlings were grown for 16 days after treatment before photos were taken.
The results of this study are represented in the following table, where compounds of the invention are represented by number, and herbicidal activity is represented using the following: ≤125 μM=+++, ≤500 μM=++, ≤2000 μM=+
as §1, with “A.” for “A range of compounds of the invention were assessed for herbicidal activity against A. thaliana. A.”, “Compounds” for “Compounds of the invention”
On to `CC(=NNC(=O)Nc1cccc(F)c1)c1ncccc1C(=O)OCCN(C)C.Cl` [2-(Dimethylamino)ethyl 2-[1-[2-[[(3-fluorophenyl)amino]carbonyl]hydrazinylidene]ethyl]-3-pyridinecarboxylate hydrochloride], for which the Active at stood at 125 µM. The same measure, in the same setting: the same measure for `CC(C)C1(C)N=C(c2ncccc2C(=O)OCCN(C)C)NC1=O.Cl` (stereo not shown) [2-(Dimethylamino)ethyl 2-[4,5-dihydro-4-methyl-4-(1-methylethyl)-5-oxo-1H-imidazol-2-yl]-3-pyridinecarboxylate hydrochloride]: 500 µM; for `CN(C)CCOC(=O)c1nc(Cl)ccc1Cl.Cl` [3,6-dichloropyridine-2-carboxylic acid 2-(dimethylamino)ethyl ester hydrochloride]: 125 µM; for `CN(C)CCOC(=O)c1nc(Cl)ccc1Cl` [3,6-dichloropyridine-2-carboxylic acid 2-(dimethylamino)ethyl ester]: 125 µM.

`CN(C)CCOC(=O)c1c(Cl)ccc2cc(Cl)cnc12.Cl` [3,7-dichloroquinoline-8-carboxylic acid 2-(dimethylamino)ethyl ester hydrochloride] showed an Active at of 2000 µM. Same read-out and setting: the same measure for `CN(C)CCOC(=O)c1c(Cl)ccc2cc(Cl)cnc12` [3,7-dichloroquinoline-8-carboxylic acid 2-(dimethylamino)ethyl ester]: 2000 µM.

Staying with this assay, now noted: Arabidopsis thaliana, 384 h; A. thaliana Col-0; post-emergence treatments at three and six days after germination; grown 16 days after treatment.
With `O=C(O)CC(O)(CC(=O)O)C(=O)O` [1. citrate], the minimal effective concentration is at most 125 µM.

As to `COc1c(Cl)ccc(Cl)c1C(=O)OCCN(C)C` [Compound 1, 2-(dimethylamino)ethyl 3,6-dichloro-2-methoxybenzoate], the minimal effective concentration was at most 500 µM. Same read-out and setting: with `CCN(CC)CCOC(=O)c1c(Cl)ccc(Cl)c1OC` [Compound 2, 2-(diethylamino)ethyl 3,6-dichloro-2-methoxybenzoate] the figure was at most 125 µM; with `COc1c(Cl)ccc(Cl)c1C(=O)OCCN(C(C)C)C(C)C` [Compound 3, 2-(dipropan-2-ylamino)ethyl 3,6-dichloro-2-methoxybenzoate], at most 500 µM.

With `CCCCN(CCCC)CCOC(=O)c1c(Cl)ccc(Cl)c1OC` [Compound 4, 2-(dibutylamino)ethyl 3,6-dichloro-2-methoxybenzoate], the minimal effective concentration was at most 125 µM. On the same count and under the same terms, with `COc1c(Cl)ccc(Cl)c1C(=O)OCCN1CCCC1` [Compound 5, 2-(pyrrolidin-1-yl)ethyl 3,6-dichloro-2-methoxybenzoate] the figure was at most 500 µM.

As for `COc1c(Cl)ccc(Cl)c1C(=O)OCCN1CCCCC1` [Compound 6, 2-(piperidin-1-yl)ethyl 3,6-dichloro-2-methoxybenzoate], the minimal effective concentration was at most 2000 µM. On the same count and under the same terms, the same measure for `COc1c(Cl)ccc(Cl)c1C(=O)OCCN1CCOCC1` [Compound 7, 2-(morpholin-4-yl)ethyl 3,6-dichloro-2-methoxybenzoate]: at most 125 µM; for `COc1c(Cl)ccc(Cl)c1C(=O)OCCN1CCN(C)CC1` [Compound 8, 2-(4-methylpiperazin-1-yl)ethyl 3,6-dichloro-2-methoxybenzoate]: at most 2000 µM.

As to `COc1c(Cl)ccc(Cl)c1C(=O)OC1CCN(C)CC1` [Compound 9, 1-methylpiperidin-4-yl 3,6-dichloro-2-methoxybenzoate], the minimal effective concentration is at most 2000 µM. Consider `COc1c(Cl)ccc(Cl)c1C(=O)OCC1CCCN1C` (stereo not shown) [Compound 10, (1-methylpyrrolidin-2-yl)methyl 3,6-dichloro-2-methoxybenzoate], for which the minimal effective concentration was at most 500 µM. Compound `COc1c(Cl)ccc(Cl)c1C(=O)OCCc1ccccn1` [Compound 11, 2-(pyridin-2-yl)ethyl 3,6-dichloro-2-methoxybenzoate] had a minimal effective concentration of at most 125 µM. As for `COc1c(Cl)ccc(Cl)c1C(=O)OCCCN(C)C` [Compound 12, 3-(dimethylamino)propyl 3,6-dichloro-2-methoxybenzoate], the minimal effective concentration was at most 2000 µM.

Turning to `COc1c(Cl)ccc(Cl)c1C(=O)OCCCCCCN(C)C` [Compound 14, 6-(dimethylamino)hexyl 3,6-dichloro-2-methoxybenzoate], the minimal effective concentration is at most 125 µM. Still for that read-out and setting: the same measure for `COc1c(Cl)ccc(Cl)c1C(=O)OCCCCCCCCN(C)C` [Compound 15, 8-(dimethylamino)octyl 3,6-dichloro-2-methoxybenzoate]: at most 500 µM; for `COc1c(Cl)ccc(Cl)c1C(=O)OCCOCCN(C)C` [Compound 16, 2-(2-(dimethylamino)ethoxy)ethyl 3,6-dichloro-2-methoxybenzoate]: at most 500 µM; for `COc1c(Cl)ccc(Cl)c1C(=O)OCCN(C)CCO` [Compound 17, 2-((2-hydroxyethyl)(methyl)amino)ethyl 3,6-dichloro-2-methoxybenzoate]: at most 2000 µM.

For `COc1c(Cl)ccc(Cl)c1C(=O)OCCN(C)CCOC(=O)c1c(Cl)ccc(Cl)c1OC` [Compound 18, (Methylazanediyl)bis(ethane-2,1-diyl) bis(3,6-dichloro-2-methoxybenzoate)], the minimal effective concentration was at most 125 µM. Same read-out and setting: with `COc1c(Cl)ccc(Cl)c1C(=O)OCCN` [Compound 19, 2-aminoethyl 3,6-dichloro-2-methoxybenzoate] the figure was at most 500 µM. `CNCCOC(=O)c1c(Cl)ccc(Cl)c1OC` [Compound 20, 2-(methylamino)ethyl 3,6-dichloro-2-methoxybenzoate] yielded a minimal effective concentration of at most 500 µM. Same read-out and setting: with `COc1c(Cl)ccc(Cl)c1C(=O)OCC(C)(C)N` [Compound 21, 2-amino-2-methylpropyl 3,6-dichloro-2-methoxybenzoate] the figure was at most 500 µM. Still for that read-out and setting: the same measure for `COc1c(Cl)ccc(Cl)c1C(=O)OC(C)CN` (stereo not shown) [Compound 22, 1-aminopropan-2-yl 3,6-dichloro-2-methoxybenzoate]: at most 2000 µM; for `COc1c(Cl)ccc(Cl)c1C(=O)OCCCN` [Compound 23, 3-aminopropyl 3,6-dichloro-2-methoxybenzoate]: at most 125 µM.

`CCN(CCOC(=O)c1c(Cl)ccc(Cl)c1OC)c1ccccc1` [Compound 24, 2-(ethyl(phenyl)amino)ethyl 3,6-dichloro-2-methoxybenzoate] gave a minimal effective concentration of at most 500 µM. For the compound `COc1c(Cl)ccc(Cl)c1C(=O)OCCN(Cc1ccccc1)Cc1ccccc1` [Compound 25, 2-(dibenzylamino)ethyl 3,6-dichloro-2-methoxybenzoate], the minimal effective concentration was at most 2000 µM. On to `COc1c(Cl)ccc(Cl)c1C(=O)OC(CN(C)C)CN(C)C` [Compound 26, 1,3-bis(dimethylamino)propan-2-yl 3,6-dichloro-2-methoxybenzoate], for which the minimal effective concentration was at most 125 µM. On the same count and under the same terms, the same measure for `COc1c(Cl)ccc(Cl)c1C(=O)SCCN(C)C` [Compound 27, S-(2-(dimethylamino)ethyl) 3,6-dichloro-2-methoxybenzene-1-carbothioate]: at most 125 µM.

In turn, `CCN(CC)CCSC(=O)c1c(Cl)ccc(Cl)c1OC` [Compound 28, S-(2-(diethylamino)ethyl) 3,6-dichloro-2-methoxybenzene-1-carbothioate] yielded a minimal effective concentration of at most 125 µM.

In the next assay the test system is Arabidopsis thaliana. In words: Activity of 2,4-DB esters compared with 2,4-DB. To be noted: 31.25 μM to 2000 μM; imaged day 12. Type of assay: in vivo. Here is the method: Once the Arabidopsis thaliana seeds had germinated, this was Day 0 and an image taken (Treatment—Day 0) to show plants were all at the same stage. Plants were treated either with 2,4-DB or 2-(dimethylamino)ethyl 4-(2,4-dichlorophenoxy)butanoate at concentrations ranging from 31.25 μM to 2000 μM as marked and imaged 12 days later (Treatment—Day 12).
Once the Arabidopsis thaliana seeds had germinated, this was Day 0 and an image taken (Treatment—Day 0) to show plants were all at the same stage. Plants were treated either with 2,4-DB or 2-(dimethylamino)ethyl 4-(2,4-dichlorophenoxy)butanoate hydrochloride at concentrations ranging from 31.25 μM to 2000 μM as marked and imaged 12 days later (Treatment—Day 12).
In the case of `O=C(O)CCCOc1ccc(Cl)cc1Cl` [2,4-DB, 4-(2,4-dichlorophenoxy)butanoic acid, reference compound], the “activity against Arabidopsis thaliana on an equimolar basis, FIGS. 19 and 20” value was “comparable activity”. With `CN(C)CCOC(=O)CCCOc1ccc(Cl)cc1Cl.Cl` [2-(dimethylamino)ethyl 4-(2,4-dichlorophenoxy)butanoate hydrochloride], the “activity against Arabidopsis thaliana on an equimolar basis, FIGS. 19 and 20” value is “comparable activity”. Same read-out and setting: with `CN(C)CCOC(=O)CCCOc1ccc(Cl)cc1Cl` [2-(dimethylamino)ethyl 4-(2,4-dichlorophenoxy)butanoate] the entry was “comparable activity”.
